Measurements from EP0454459A2, “Sulfonylalkanoic acid amide derivatives” (TAISHO PHARMACEUTICAL CO. LTD, priority 1990, dated 1991).

How the values were obtained:
male Wistar rats [1] = test: Inhibition test of anemic decerebrate rigidity; format: in vivo; conditions: inhibition time of forelimb rigidity, intravenously, 5 mg/kg, dissolved in polyethlene glycol 400
Description: The rigidity animals were prepared according to the method of Fukuda et al. [Japanese J. Pharmacol., vol. 24, pages 810 - 813 (1974)].
Four male Wistar rats weighing 250 to 350 g were used for each group.
The animal was incised on the cervical region under the ethyl ether anesthesia, and the common carotid arteries were ligated bilaterally. A trephined opening was made in the occipital bone and the basilar artery was coagulated using a bipolar electro-coagulator. Marked rigidity occurred on the forelimbs after discontinuation of the ethyl ether anesthesia. The test drugs dissolved in polyethlene glycol 400 were each administered intravenously in a dose of 5 mg/kg (0.1 ml per 100 g of rat) to determine the inhibition time of the rigidity.

male Wistar rats [2] = test: Inhibition test of the radiofrequency decerebrate rigidity; format: in vivo; conditions: inhibition time of hindlimb rigidity, intravenously, 5 mg/kg, dissolved in propylene glycol
Description: The rigidity animals were prepared according to the method of Ono et al. [Gen. Pharm., vol. 18, pages 57 - 59 (1987)].
Four male Wistar rats weighing 250 to 350 g were used for each group. The animals were anesthetized with ethyl ether and fixed on a brain stereotaxic apparatus to break the midbrain bilaterally (APO, V-3, L±1.5). Rigidity occurred gradually in the hindlimbs after discontinuation of ethyl ether anesthesia. The test drugs dissolved in propylene glycol were administered intravenously in a dose of 5 mg/kg (0.1 ml per 100 g of rat) to determine the inhibition time of the rigidity.

male ICR mice [3] = test: Straub tail test (morphine-induced tail elevation); format: in vivo; conditions: orally 100 mg/kg, 15 mg/kg morphine hydrochloride s.c. after 15 minutes, tail elevation determined after 30 minutes, positive when angle less than 45°
Description: The test was carried out according to the method of Ellis et al. [Neuropharmacology, vol. 13, pages 211 - 214 (1974)]. Five male ICR mice weighing 20 to 30 g were used for each group. The test drugs suspended in 0.4% aqueous carboxymethylcellulose solution were administered orally in a dose of 100 mg/kg (0.1 ml per 10 g of mouse). After 15 minutes, 15 mg/kg of morphine hydrochloride was administered subcutaneously, and after 30 minutes, the tail elevation was determined. The muscle relaxation activity was defined as positive when the angle of tail elevation from the horizontal was less than 45°. As a result, the inhibition ratio of Compounds 2, 4 and 8 were each 100%.

male ICR mice [4] = test: Acute toxicity test; format: in vivo; conditions: orally, dose of 1 g/kg, observed 7 days after administration
Description: (§1) Ten male ICR mice weighing 25 to 34 g were used. Compound 4 suspended in 0.4 aqueous carboxymethylcellulose solution was each administered orally to mice in a volume of 0.1 ml per 10 g of mice. The survivals were observed 7 days after administration.

Acute toxicity test = format: in vivo, ICR mice; conditions: mouse, in vivo, po; mice; p.o.; survivals observed 7 days after administration; read-out: LD₅₀ value
Description: as §1

| Compound | Inhibition Time (male Wistar rats [1]) | Inhibition Time (male Wistar rats [2]) | inhibition ratio (male ICR mice [3]) | death (male ICR mice [4]) | LD50 at 168 h (Acute toxicity test) |
| --- | --- | --- | --- | --- | --- |
| CC(C(=O)NC1CC1)S(=O)(=O)c1ccccc1Cl (centres unmarked) [Compound 2, N-cyclopropyl-2-(2-chlorophenylsulfonyl)propionamide] | 5.0 min | 11.7 min | 100% |  |  |
| CC(C(=O)NC1CC1)S(=O)(=O)c1ccccc1Br (centres unmarked) [Compound 4, N-cyclopropyl-2-(2-bromophenylsulfonyl)propionamide] |  | 37.0 min | 100% | No death occurred | > 1000 mg/kg |
| CC(C(=O)NC1CC1)S(=O)(=O)c1ccc(Cl)cc1Cl (centres unmarked) [Compound 8, N-cyclopropyl-2-(2,4-dichlorophenylsulfonyl)propionamide] | 17.7 min | 78.0 min | 100% |  |  |
| CC(C(=O)NC1CC1)S(=O)(=O)c1ccc(F)cc1Cl (centres unmarked) [Compound 11] |  | 24.0 min |  |  |  |
